Laboratory results: patent US12319672B2, “Alpha-D-galactopyranoside derivatives” (Idorsia Pharmaceuticals Ltd, priority 2019, dated 2025)

Legend:
human Gal-1 (hGal-1) = test: Competitive binding assay: binding of biotinylated hGal-1 to microplate-adsorbed asialofetuin (ASF); details: Activities on hGal-1; mean values of several measurements
In short: (§1)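 Spectrophotometric readout (streptavidin-peroxidase, ABTS) of biotinylated galectin retained on ASF-coated wells. Biotinylated hGal-1 or hGal-3, 300-1000 ng/mL, co-incubated with test compound 3 h at 4° C, then washed. Mean IC50 from repeat runs.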

human Gal-3 (hGal-3) = human Gal-3 (hGal-3) (Homo sapiens (Human), UniProt P17931); test: Competitive binding assay: binding of biotinylated hGal-3 to microplate-adsorbed asialofetuin (ASF); details: Activity on hGal-3; mean values of several measurements
In short: as §1

Chain of human Gal-3 (hGal-3) (P17931 whole entry): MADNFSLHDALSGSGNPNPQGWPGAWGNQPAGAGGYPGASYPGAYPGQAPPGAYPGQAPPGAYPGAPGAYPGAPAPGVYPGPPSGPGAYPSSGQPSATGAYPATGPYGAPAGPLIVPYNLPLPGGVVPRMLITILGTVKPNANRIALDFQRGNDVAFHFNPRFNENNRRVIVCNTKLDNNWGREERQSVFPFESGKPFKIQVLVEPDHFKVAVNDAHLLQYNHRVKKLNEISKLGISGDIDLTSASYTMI
Chain of human Gal-1 (hGal-1) (P09382 2-135 limits assumed): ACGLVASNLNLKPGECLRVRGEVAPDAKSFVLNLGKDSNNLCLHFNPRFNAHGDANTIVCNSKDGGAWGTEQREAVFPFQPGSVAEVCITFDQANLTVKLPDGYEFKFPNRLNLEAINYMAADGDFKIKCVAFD

Row | SMILES | IC50 (human Gal-1 (hGal-1)) | IC50 (human Gal-3 (hGal-3))
1 | CO[C@@H]1[C@@H](n2cc(-c3cc(F)c(F)c(F)c3)nn2)[C@@H](O)[C@@H](CO)O[C@@H]1C[C@H]1CN(C2CCN(C(=O)C(C)C)CC2)C(=O)O1 [Example 5.12, (S)-5-(((2R,3R,4S,5R,6R)-5-hydroxy-6-(hydroxymethyl)-3-methoxy-4-(4-(3,4,5-trifluorophenyl)-1H-1,2,3-triazol-1-yl)tetrahydro-2H-pyran-2-yl)methyl)-3-(1-isobutyrylpiperidin-4-yl)oxazolidin-2-one] | 1000 nM | 130 nM
2 | COc1ccc(C2=NOC(C[C@H]3O[C@H](CO)[C@H](O)[C@H](n4cc(-c5cc(F)c(F)c(F)c5)nn4)[C@H]3O)C2)cc1O (some centres unmarked) [Ex 1.25] | 4970 nM | 670 nM
3 | CO[C@@H]1[C@@H](n2cc(-c3ccc(C)c(F)c3)nn2)[C@@H](O)[C@@H](CO)O[C@@H]1Cc1cc(C2CCN(C(C)=O)CC2)on1 [Ex 1.162] | 740 nM | 37 nM
4 | CO[C@@H]1[C@@H](n2cc(-c3cc(F)c(F)c(F)c3)nn2)[C@@H](O)[C@@H](CO)O[C@@H]1CN1CC(=O)N(C2CCCCC2)C1 [Example 6.09, 3-cyclohexyl-1-(((2R,3R,4S,5R,6R)-5-hydroxy-6-(hydroxymethyl)-3-methoxy-4-(4-(3,4,5-trifluorophenyl)-1H-1,2,3-triazol-1-yl)tetrahydro-2H-pyran-2-yl)methyl)imidazolidin-4-one] | 6720 nM | 59 nM
5 | CO[C@@H]1[C@@H](n2cc(-c3cc(F)c(Cl)c(F)c3)nn2)[C@@H](O)[C@@H](CO)O[C@@H]1Cc1cc(C(C)(C)C)on1 [Ex 1.194] | 3510 nM | 180 nM
6 | CO[C@@H]1[C@@H](n2cc(-c3cc(F)c(F)c(F)c3)nn2)[C@@H](O)[C@@H](CO)O[C@@H]1Cc1cc(C2CCN(C)CC2)on1 [Example 3.39, (2R,3R,4S,5R,6R)-2-(hydroxymethyl)-5-methoxy-6-((5-(1-methylpiperidin-4-yl)isoxazol-3-yl)methyl)-4-(4-(3,4,5-trifluorophenyl)-1H-1,2,3-triazol-1-yl)tetrahydro-2H-pyran-3-ol] | 5090 nM | 260 nM
7 | CO[C@@H]1[C@@H](n2cc(-c3cc(F)c(F)c(F)c3)nn2)[C@@H](O)[C@@H](CO)O[C@@H]1Cc1cc(C2CCN(S(=O)(=O)N3CCC(F)(F)CC3)CC2)on1 [Example 3.65, (2R,3R,4S,5R,6R)-6-((5-(1-((4,4-difluoropiperidin-1-yl)sulfonyl)piperidin-4-yl)isoxazol-3-yl)methyl)-2-(hydroxymethyl)-5-methoxy-4-(4-(3,4,5-trifluorophenyl)-1H-1,2,3-triazol-1-yl)tetrahydro-2H-pyran-3-ol] | 1880 nM | 45 nM
8 | CO[C@@H]1[C@@H](n2cc(-c3cc(F)c(F)c(F)c3)nn2)[C@@H](O)[C@@H](CO)O[C@@H]1C[C@@H]1CN(C2CCN(S(C)(=O)=O)CC2)C(=O)O1 [Example 5.08, (R)-5-(((2R,3R,4S,5R,6R)-5-hydroxy-6-(hydroxymethyl)-3-methoxy-4-(4-(3,4,5-trifluorophenyl)-1H-1,2,3-triazol-1-yl)tetrahydro-2H-pyran-2-yl)methyl)-3-(1-(methylsulfonyl)piperidin-4-yl)oxazolidin-2-one] | 160 nM | 18 nM
9 | CO[C@@H]1[C@@H](n2cc(-c3ccc(C)c(F)c3F)nn2)[C@@H](O)[C@@H](CO)O[C@@H]1Cc1cc(C2CCC2O)on1 (some centres unmarked) [Ex 1.346] | 11700 nM | 100 nM
10 | CO[C@@H]1[C@@H](n2cc(-c3cc(F)c(F)c(F)c3)nn2)[C@@H](O)[C@@H](CO)O[C@@H]1Cc1cn(C2CCN(C(=O)OC(C)(C)C)CC2)nn1 [Example 4.05, tert-butyl 4-(4-(((2R,3R,4S,5R,6R)-5-hydroxy-6-(hydroxymethyl)-3-methoxy-4-(4-(3,4,5-trifluorophenyl)-1H-1,2,3-triazol-1-yl)tetrahydro-2H-pyran-2-yl)methyl)-1H-1,2,3-triazol-1-yl)piperidine-1-carboxylate] | 140 nM | 35 nM
11 | OC[C@H]1O[C@H](CC2CC(c3ccc4cn[nH]c4c3)=NO2)[C@H](O)[C@@H](n2cc(-c3cc(F)c(F)c(F)c3)nn2)[C@H]1O (some centres unmarked) [Ex 1.33] | 7940 nM | 800 nM
12 | CO[C@@H]1[C@@H](n2cc(-c3cc(F)c(F)c(F)c3)nn2)[C@@H](O)[C@@H](CO)O[C@@H]1Cc1cc(C2(C)CCOCC2)no1 [Ex 1.282] | 1770 nM | 110 nM
13 | CO[C@@H]1[C@@H](n2cc(-c3ccc(C)c(F)c3F)nn2)[C@@H](O)[C@@H](CO)O[C@@H]1Cc1cc(C2CCC2O)on1 (some centres unmarked) [Ex 1.347] | 8210 nM | 110 nM
14 | CC(C)(C)OC(=O)N1CCC(C2=NOC(C[C@H]3O[C@H](CO)[C@H](O)[C@H](n4cc(-c5cccc(C(F)(F)F)c5)nn4)[C@H]3O)C2)CC1 (some centres unmarked) [Ex 1.301] | 2890 nM | 2700 nM
15 | CN1CCC(c2cc(C[C@H]3O[C@H](CO)[C@H](O)[C@H](n4cc(-c5cc(F)c(F)c(F)c5)nn4)[C@H]3O)no2)CC1 [Example 3.29, (2R,3R,4R,5R,6R)-2-(hydroxymethyl)-6-((5-(1-methylpiperidin-4-yl)isoxazol-3-yl)methyl)-4-(4-(3,4,5-trifluorophenyl)-1H-1,2,3-triazol-1-yl)tetrahydro-2H-pyran-3,5-diol] | 15800 nM | 270 nM
16 | CO[C@@H]1[C@@H](n2cc(-c3cc(F)c(C)cc3F)nn2)[C@@H](O)[C@@H](CO)O[C@@H]1Cc1cc(C2CCCCC2)on1 [Ex 1.248] | > 100000 nM | 700 nM
17 | CO[C@@H]1[C@@H](n2cc(-c3ccc(Cl)c(F)c3)nn2)[C@@H](O)[C@@H](CO)O[C@@H]1Cc1cc(C2CCN(C(C)=O)CC2)on1 [Ex 1.165] | 680 nM | 59 nM
18 | CO[C@@H]1[C@@H](n2cc(-c3cc(F)c(F)c(F)c3)nn2)[C@@H](O)[C@@H](CO)O[C@@H]1Cc1cc(C2(C(F)F)CC2)no1 [Ex 1.214] | 920 nM | 130 nM
19 | CO[C@@H]1[C@@H](n2cc(-c3cc(F)c(F)c(F)c3)nn2)[C@@H](O)[C@@H](CO)O[C@@H]1C[C@@H]1CN(C2CCN(C(=O)OC(C)(C)C)CC2)C(=O)O1 [Example 5.15, tert-butyl 4-((R)-5-(((2R,3R,4S,5R,6R)-5-hydroxy-6-(hydroxymethyl)-3-methoxy-4-(4-(3,4,5-trifluorophenyl)-1H-1,2,3-triazol-1-yl)tetrahydro-2H-pyran-2-yl)methyl)-2-oxooxazolidin-3-yl)piperidine-1-carboxylate] | 210 nM | 50 nM
20 | CO[C@@H]1[C@@H](n2cc(-c3cc(F)cc(Cl)c3)nn2)[C@@H](O)[C@@H](CO)O[C@@H]1Cc1cc(C(C)(C)C)on1 [Ex 1.196] | 2430 nM | 400 nM
21 | CO[C@@H]1[C@@H](n2cc(-c3ccc(Cl)c(F)c3F)nn2)[C@@H](O)[C@@H](CO)O[C@@H]1Cc1cc(-c2ccc(F)c(F)c2F)on1 [Ex 1.231] | > 100000 nM | 910 nM
22 | CO[C@@H]1[C@@H](n2cc(-c3cc(F)c(F)c(F)c3)nn2)[C@@H](O)[C@@H](CO)O[C@@H]1CN1CN(C2CCN(C(C)=O)CC2)CC1=O [Example 6.07, 1-(1-acetylpiperidin-4-yl)-3-(((2R,3R,4S,5R,6R)-5-hydroxy-6-(hydroxymethyl)-3-methoxy-4-(4-(3,4,5-trifluorophenyl)-1H-1,2,3-triazol-1-yl)tetrahydro-2H-pyran-2-yl)methyl)imidazolidin-4-one] | 910 nM | 150 nM
23 | CO[C@@H]1[C@@H](n2cc(-c3cc(F)c(F)c(F)c3)nn2)[C@@H](O)[C@@H](CO)O[C@@H]1Cc1cn(C2CCSCC2)nn1 [Example 4.14, (2R,3R,4S,5R,6R)-2-(hydroxymethyl)-5-methoxy-6-((1-(tetrahydro-2H-thiopyran-4-yl)-1H-1,2,3-triazol-4-yl)methyl)-4-(4-(3,4,5-trifluorophenyl)-1H-1,2,3-triazol-1-yl)tetrahydro-2H-pyran-3-ol] | 3880 nM | 36 nM
24 | CO[C@@H]1[C@@H](n2cc(-c3cc(F)c(F)c(F)c3)nn2)[C@@H](O)[C@@H](CO)O[C@@H]1Cc1cc(C2CCN(CC3COC3)CC2)on1 [Example 3.44, (2R,3R,4S,5R,6R)-2-(hydroxymethyl)-5-methoxy-6-((5-(1-(oxetan-3-ylmethyl)piperidin-4-yl)isoxazol-3-yl)methyl)-4-(4-(3,4,5-trifluorophenyl)-1H-1,2,3-triazol-1-yl)tetrahydro-2H-pyran-3-ol] | 5320 nM | 560 nM
25 | CO[C@@H]1[C@@H](n2cc(-c3ccc(F)c(F)c3F)nn2)[C@@H](O)[C@@H](CO)O[C@@H]1Cc1cc(C2CCCCC2)on1 [Ex 1.175] | 4760 nM | 310 nM
26 | CO[C@@H]1[C@@H](n2cc(-c3nc(Br)cs3)nn2)[C@@H](O)[C@@H](CO)O[C@@H]1CC1CC(C2CCN(C(=O)OC(C)(C)C)CC2)=NO1 (some centres unmarked) [Ex 1.311] | 65 nM | 2380 nM
27 | OC[C@H]1O[C@H](Cc2cc(C3CCCCC3)on2)[C@H](O)[C@@H](n2cc(-c3cc(F)c(F)c(F)c3)nn2)[C@H]1O [Ex 1.56] | 15200 nM | 340 nM
28 | CC(=O)O[C@@H]1[C@@H](n2cc(-c3cc(F)c(F)c(F)c3)nn2)[C@@H](O)[C@@H](CO)O[C@@H]1Cc1cc(C2CCNCC2)on1 [Example 3.15, (2R,3R,4S,5R,6R)-5-hydroxy-6-(hydroxymethyl)-2-((5-(piperidin-4-yl)isoxazol-3-yl)methyl)-4-(4-(3,4,5-trifluorophenyl)-1H-1,2,3-triazol-1-yl)tetrahydro-2H-pyran-3-yl acetate] | 13600 nM | 140 nM
